Source: paper PMC9954641, “Molecular Insight into Drug Resistance Mechanism Conferred by Aberrant PIK3CD Splice Variant in African American Prostate Cancer” (Cancers, 2023)
Where two headings read alike, the source gives them in different places.

Tests used:
Type in all cases: biochemical
[1] = target: T1, PI3Kδ-L (full-length PI3Kδ) (Homo sapiens, UniProt O00329); assay: cell-free PI3 kinase activity assay at […]; also ATP-competitive binding assay ([…] less ATP bound)
T1 construct: gene PIK3CD; full-length PI3Kδ-L, V5-His tagged, Ni-NTA purified from transfected LNCaP and MDA PCa 2b cells
T1 sequence (O00329 1-1044): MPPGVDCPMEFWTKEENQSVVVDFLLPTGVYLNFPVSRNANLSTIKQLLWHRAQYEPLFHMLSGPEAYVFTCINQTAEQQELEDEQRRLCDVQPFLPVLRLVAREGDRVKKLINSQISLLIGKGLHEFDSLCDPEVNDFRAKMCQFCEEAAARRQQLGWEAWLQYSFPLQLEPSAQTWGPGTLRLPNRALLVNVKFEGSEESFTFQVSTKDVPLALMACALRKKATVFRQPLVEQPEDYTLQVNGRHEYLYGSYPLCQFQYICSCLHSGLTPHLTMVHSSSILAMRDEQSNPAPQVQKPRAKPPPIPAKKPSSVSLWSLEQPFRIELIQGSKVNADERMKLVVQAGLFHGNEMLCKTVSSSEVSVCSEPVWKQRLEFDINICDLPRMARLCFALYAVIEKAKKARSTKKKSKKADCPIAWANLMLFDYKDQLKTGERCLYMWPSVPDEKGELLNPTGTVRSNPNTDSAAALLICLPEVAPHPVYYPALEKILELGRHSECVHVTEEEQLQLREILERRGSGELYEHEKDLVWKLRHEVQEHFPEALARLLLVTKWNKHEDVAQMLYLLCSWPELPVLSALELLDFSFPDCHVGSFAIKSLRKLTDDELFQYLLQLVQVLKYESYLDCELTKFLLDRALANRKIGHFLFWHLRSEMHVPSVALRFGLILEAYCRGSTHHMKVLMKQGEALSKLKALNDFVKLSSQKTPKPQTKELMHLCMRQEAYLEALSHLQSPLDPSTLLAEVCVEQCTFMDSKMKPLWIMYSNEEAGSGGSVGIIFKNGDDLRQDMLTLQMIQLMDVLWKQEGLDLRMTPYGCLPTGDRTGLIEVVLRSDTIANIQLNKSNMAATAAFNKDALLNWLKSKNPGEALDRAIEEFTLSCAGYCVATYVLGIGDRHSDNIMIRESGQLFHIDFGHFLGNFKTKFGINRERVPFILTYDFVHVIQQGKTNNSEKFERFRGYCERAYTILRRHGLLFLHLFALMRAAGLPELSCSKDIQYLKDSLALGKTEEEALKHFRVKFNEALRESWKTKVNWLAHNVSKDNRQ

[2] = target: T1, PI3Kδ-L (full-length PI3Kδ); assay: as above; remark: listed apart in the source
[3] = target: T1, PI3Kδ-L (full-length PI3Kδ); assay: cell-free PI3 kinase activity assay at […] (no effect at […] on MDA PCa 2b-derived protein); also ATP-competitive binding assay ([…] less ATP bound)

SMILES: Cn1c(=O)n(-c2ccc(C(C)(C)C#N)cc2)c2c3cc(-c4cnc5ccccc5c4)ccc3ncc21 [Dactolisib]
- cell-free PI3 kinase activity assay at 1 and 10 μM; also ATP-competitive binding [1]: Idelalisib, Seletalisib, Wortmannin, and Dactolisib effectively suppressed the PI3Kδ-L activities

SMILES: [O-][n+]1cccc(-c2nc3c(Cl)cccc3cc2[C@@H](Nc2ncnc3cccnc23)C(F)(F)F)c1 [Seletalisib]
- cell-free PI3 kinase activity assay at 1 and 10 μM; also ATP-competitive binding [2]: Idelalisib, Seletalisib, Wortmannin, and Dactolisib effectively suppressed the PI3Kδ-L activities

SMILES: COC[C@H]1OC(=O)c2coc3c2[C@@]1(C)C1=C(C3=O)[C@@H]2CCC(=O)[C@@]2(C)C[C@H]1OC(C)=O [Wortmannin]
- cell-free PI3 kinase activity assay at 1 and 10 μM (no effect at 1 μM on MDA PCa) [3]: Idelalisib, Seletalisib, Wortmannin, and Dactolisib effectively suppressed the PI3Kδ-L activities
